In patent US20240074986A1, “Methods of Enhancing Non-Viral Gene Therapy” (Spark Therapeutics, Inc., priority 2020, published 2024):

Experiments:
CLEC4F+ Kupffer cells = experiment: Liver histology, anti-CLEC4F staining, depletion efficacy (Example 3); format: in vivo, Balb/C mice; settings: for Kupffer cell depletion (CLEC4F+ staining): clodronate IV 50 or 17 mpk, anti-CD115 IP 12 mpk 1 or 4 doses, pexidartinib oral gavage 100 mpk 4 doses, FIG. 5A
Method: (§1) Balb/C mice were treated with the immune cell depletion agents clodronate, anti-CD115 antibody (as described in Example 1), or pexidartinib. Clodronate was provided by IV administration at 50 mpk (1.25 mg) or 17 mpk (425 μg), anti-CD115 antibody was provided by IP administration at 12 mpk (300 μg) 1 dose vs 4 doses. Anti-CD115 antibody was as described in Example 1. Pexidartinib was provided by oral gavage administration at 100 mpk (2.5 mg) 4 doses. A no-treatment mice group was used as a control. Each group contained 5 male BALB/c mice.
(§2) After the treatment, mice were euthanized and the liver samples were harvested for histology. Liver samples were stained with either anti-CLEC4F or anti-CD68 mouse antibody. Individual scores of the treatment groups were normalized by the no-treatment group to calculate depletion efficacy.
(§3) Pexidartinib was mixed with mice chow at 400 mg Pex/kg chow. Liver histology was taken after mice were fed with Pex-chow for 7 or 21 days.

CD68+ macrophages = experiment: Liver histology, anti-CD68 staining, depletion efficacy (Example 3); format: in vivo, Balb/C mice; settings: for CD68+ macrophage depletion: clodronate IV 50 or 17 mpk, anti-CD115 IP 12 mpk 1 or 4 doses, pexidartinib oral gavage 100 mpk 4 doses, FIG. 5B
Method: as §1, §2, §3

hFIX = hFIX levels in mouse plasma by ELISA after pexidartinib chow and DNA-LNP-5 (Example 4); format: in vivo; settings: DNA-LNP-5 10 μg per mouse; 1-4 weeks after dosing; Pex chow 7 or 21 days before dosing or regular chow; FIG. 7
Method: Pexidartinib was mixed with mice chow at 400 mg Pex/kg chow. In group 2 and group 3, mice chow was replaced with Pex chow at 21 days and 7 days before DNA-LNP-5 dosing.
Mice in group 1 were fed with regular chow throughout the study and served as controls. Mice were dosed with DNA-LNP-5 (10 μg per mouse). LNP-5 (GenVoy™ LNP) was obtained from Precision NanoSystems Inc.) and contained: ionizable lipid at 50%; DSPC at 10%; cholesterol 37.5%; and stabilizer (PEG-Lipid) at 2.5% (see Roces et al., Pharmaceutics, 2020 12, 1095.) DNA was as described in Example 1. hFIX levels in mouse plasma were quantified using ELISA 1-4 weeks after dosing.

INF-γ and/or IL-6 = experiment: Plasma pro-inflammatory cytokines by MSD 6 hours post-dose (Example 2); format: in vivo, mice (Balb/c); settings: 6-hour post-dose plasma; SPK-LNP1 50 μg; FIGS. 3A and 3B
Method: The effects of immune cell depletion on cytokine release and on transgene expression were studied using an anti-CD115 antibody in combination with clodronate, which is a toxic agent encapsulated in liposomes to induce monocyte/macrophage apoptosis.
FIX transgene DNA plasmid (50 μg), formulated in lipid nanoparticle (LNP) delivery vehicles (SPK-LNP1), was dosed in mice (n=5; Balb/c; Jackson Laboratory) by intravenous administration alone, or in combination with anti-CD115 antibody and/or clodronate (purchased from Liposoma), as outlined in Table 3. SPK-LNP-1 had the following composition: C12-200 lipid at 35%; DOPE at 16%; cholesterol at 46.5%; and C14-PEG2000 (Avanti® Polar Lipids) at 2.5%. DNA and anti-CD115 antibody were as described in Example 1.
6-hour post-dose plasma samples were analyzed for a panel of pro-inflammatory cytokines using MSD: IL-6, IFN-γ, TNF-α and IL-1β.

| Compound | Kupffer cell depletion (CLEC4F+ staining) (CLEC4F+ Kupffer cells) | depletion of CLEC4F+ Kupffer cells (CLEC4F+ Kupffer cells; mixed with mice chow at 400 mg Pex/kg chow, fed 7 or 21 days, FIG. 6B) | CD68+ macrophage depletion (CD68+ macrophages) | depletion of CD68+ macrophages (CD68+ macrophages; mixed with mice chow at 400 mg Pex/kg chow, fed 7 or 21 days, FIG. 6A) | hFIX levels in mouse plasma (hFIX) | cytokine (INF-γ and/or IL-6) levels following DNA-LNP administration (INF-γ and/or IL-6) |
| --- | --- | --- | --- | --- | --- | --- |
| FC(F)(F)c1ccc(CNc2ccc(Cc3c[nH]c4ncc(Cl)cc34)cn2)cn1 [Pexidartinib, pexidartinib] | small impact | significant depletion | no impact | significant depletion | a few mice in Pex-treated groups showed detectable expression | – |
| O=P(O)(O)C(Cl)(Cl)P(=O)(O)O [clodronate] | significant effect | – | significant effect | – | – | moderately reduced |
